What is called IC50 is the point on the concentration scale where inhibition reaches its midpoint. In general, IC90 refers to the concentration at which the effect reaches the 90% level.

The test system of the assay is Plasmodium berghei. Description: Luciferase/luciferin-expressing antifolate-resistant parasites were used to infect a culture of HepG2 cells that were pre-incubated with compounds. Infected hepatocytes emit light due to the luciferase reaction. Assay results are presented as the percent inhibition of light emission compared to control. […]. Type of assay: functional. The note with it: sporozoite; for IC90: read-out: LUCIFERASE INFECTION ASSAY - IC90.

Some results are limits rather than exact numbers.

Take `Cc1ccc(-c2cnn3c(N4CCOCC4)cc(C)nc23)cc1`: the 90% effect concentration (IC90) is more than 10.7 µM. Under “PBLUC_HILL_SLOPE 2.15, PBLUC_R_SQUARED 0.469, read-out: LUCIFERASE INFECTION ASSAY - IC50”, the half-maximal inhibitory concentration (IC50) is 5.44 µM.

For the compound `Clc1cccc(CNc2nnnn2-c2ccccc2)c1`, the IC90 was more than 10 µM. Further, under “PBLUC_HILL_SLOPE 2.12, PBLUC_R_SQUARED 0.274, read-out: LUCIFERASE INFECTION ASSAY - IC50”, the 50% inhibitory concentration (IC50) was found to be 8.09 µM.

As for `Cn1c(N)c(C(=O)COC(=O)C2(c3ccc(Cl)cc3)CCCC2)c(=O)n(C)c1=O`, the IC90 was determined as 6.91 µM. Moreover, under “PBLUC_HILL_SLOPE 2.17, PBLUC_R_SQUARED 0.685, read-out: LUCIFERASE INFECTION ASSAY - IC50”, the IC50 was 2.5 µM.

As for `CN1N=C2c3ccccc3CCC2C1c1ccc(Cl)cc1` (configuration not stated), the IC90 stood at 4 µM. In addition, the half-maximal inhibitory concentration (IC50) (PBLUC_HILL_SLOPE 2.13, PBLUC_R_SQUARED 0.455, read-out: LUCIFERASE INFECTION ASSAY - IC50) came out at 1.42 µM.

`CC1CCN(S(=O)(=O)c2ccc(C(=O)Nc3ncccc3O)cc2)CC1`: the IC90 was more than 10 µM. Under “PBLUC_HILL_SLOPE 2.15, PBLUC_R_SQUARED 0.503, read-out: LUCIFERASE INFECTION ASSAY - IC50”, the IC50 was found to be 4.81 µM.

In the case of `Cc1ccc(S(=O)(=O)/N=C2\C=C(NS(=O)(=O)c3ccc(C)cc3)C(=O)c3ccccc32)cc1`, the 90% effect concentration (IC90) was more than 10 µM. Besides, the IC50 (PBLUC_HILL_SLOPE 2.17, PBLUC_R_SQUARED 0.652, read-out: LUCIFERASE INFECTION ASSAY - IC50) amounted to 5.51 µM.

Consider `O=C(NC1CCN(c2nccc(C(F)(F)F)n2)CC1)c1cccs1`, for which the 90% effect concentration (IC90) turned out to be 4.85 µM. For the same compound, the 50% inhibitory concentration (IC50) (PBLUC_HILL_SLOPE 2.13, PBLUC_R_SQUARED 0.731, read-out: LUCIFERASE INFECTION ASSAY - IC50) came to 1.72 µM.

As for `Cc1cccnc1NC(=O)c1ccc(Cl)c(S(=O)(=O)N(Cc2ccccc2)c2ccccc2)c1`, the IC90 is more than 10 µM. Besides, the half-inhibitory concentration (IC50) (PBLUC_HILL_SLOPE 2.12, PBLUC_R_SQUARED 0.451, read-out: LUCIFERASE INFECTION ASSAY - IC50) amounted to 5.79 µM.

As for `N#C/C(=C\c1cccc([N+](=O)[O-])c1)c1nn(-c2ccccc2)c(-n2cccc2)c1C#N`, the 90% effect concentration (IC90) was more than 8.12 µM. Moreover, the concentration for half-maximal inhibition (IC50) (PBLUC_HILL_SLOPE 2.16, PBLUC_R_SQUARED 0.645, read-out: LUCIFERASE INFECTION ASSAY - IC50) stood at 5.63 µM.

Turning to `COc1cccc(/C=C/C(=O)NC2CCCc3ccccc32)c1OC(F)F` (configuration not stated), the IC90 was more than 10 µM. Further, under “PBLUC_HILL_SLOPE 2.15, PBLUC_R_SQUARED 0.14, read-out: LUCIFERASE INFECTION ASSAY - IC50”, the 50% inhibitory concentration (IC50) was more than 10 µM.

Take `CCOc1cc2ccccc2cc1C(=O)NOCc1ccccc1`: the IC90 is more than 10 µM. The IC50 (PBLUC_HILL_SLOPE 2.14, PBLUC_R_SQUARED 0.146, read-out: LUCIFERASE INFECTION ASSAY - IC50) was more than 10 µM.

As for `CCC(=O)Nc1nc2ccc(NC(=O)c3cc(OC)cc(OC)c3)cc2s1`, the 90% effect concentration (IC90) was more than 8.56 µM. For the same compound, the IC50 (PBLUC_HILL_SLOPE 2.13, PBLUC_R_SQUARED 0.461, read-out: LUCIFERASE INFECTION ASSAY - IC50) amounted to 5.13 µM.

Regarding `Cc1ccc(Nc2nnc(SC(C)C(=O)NC(C)c3ccc(F)cc3)s2)cc1` (configuration not stated), the IC90 was more than 10 µM. Further, the IC50 (PBLUC_HILL_SLOPE 2.15, PBLUC_R_SQUARED 0.495, read-out: LUCIFERASE INFECTION ASSAY - IC50) came out at 4.9 µM.

Consider `Cc1csc(C(C#N)C(=O)CSc2nnc(Nc3ccc(OC(F)(F)F)cc3)s2)n1` (configuration not stated), for which the IC90 is more than 10 µM. The 50% inhibitory concentration (IC50) (PBLUC_HILL_SLOPE 2.13, PBLUC_R_SQUARED 0.0111, read-out: LUCIFERASE INFECTION ASSAY - IC50) is 7.36 µM.

For the compound `Cc1cc(Cl)ccc1OCC(=O)c1c(-c2ccccc2)[nH]c2ccccc12`, the concentration for an effect of 90% (IC90) was more than 10 µM. Also, the IC50 (PBLUC_HILL_SLOPE 2.14, 2.22, PBLUC_R_SQUARED 0.753, 0.563, read-out: LUCIFERASE INFECTION ASSAY - IC50) was determined as 6.03 µM.

For the compound `c1ccc(NCc2ccc(-c3cn4c(-c5cccnc5)cnc4cn3)cc2)cc1`, the concentration for an effect of 90% (IC90) is 7.31 µM. Besides, the IC50 (PBLUC_HILL_SLOPE 2.17, PBLUC_R_SQUARED 0.86, read-out: LUCIFERASE INFECTION ASSAY - IC50) was determined as 2.66 µM.

Take `O=c1nc(Nc2ccc(SC(F)(F)F)cc2)c2ccccc2o1`: the IC90 was 0.441 µM. In addition, the half-maximal inhibitory concentration (IC50) (PBLUC_HILL_SLOPE 2.14, PBLUC_R_SQUARED 0.975, read-out: LUCIFERASE INFECTION ASSAY - IC50) was found to be 0.158 µM.

Regarding `O=C(Nc1cccc2c[nH]nc12)c1cnc(OCC(F)(F)F)c(Cl)c1`, the IC90 came to 5.53 µM. Moreover, the IC50 (PBLUC_HILL_SLOPE 2.15, PBLUC_R_SQUARED 0.641, read-out: LUCIFERASE INFECTION ASSAY - IC50) was 1.99 µM.

Consider `Cc1cc(NC(=O)C(C)Sc2ncnc3c2oc2ccccc23)no1` (configuration not stated), for which the IC90 was more than 10 µM. For the same compound, the 50% inhibitory concentration (IC50) (PBLUC_HILL_SLOPE 2.18, PBLUC_R_SQUARED 0.0347, read-out: LUCIFERASE INFECTION ASSAY - IC50) was more than 10 µM.

Turning to `CSc1ncc(C(=O)OCc2cc(F)cc3c2OCOC3)n1-c1ccc(F)cc1`, the concentration for an effect of 90% (IC90) was more than 10 µM. Moreover, the IC50 (PBLUC_HILL_SLOPE 2.14, PBLUC_R_SQUARED 0.0712, read-out: LUCIFERASE INFECTION ASSAY - IC50) is 5.17 µM.

`CC(=O)c1c(C)[nH]c(-c2csc(-c3ccc(C)cc3C)n2)c1C`: the 90% effect concentration (IC90) came out at 5.96 µM. The IC50 (PBLUC_HILL_SLOPE 2.12, PBLUC_R_SQUARED 0.351, read-out: LUCIFERASE INFECTION ASSAY - IC50) turned out to be 2.12 µM.

Turning to `O=C(COc1ccc(C23CC4CC(CC(C4)C2)C3)cc1)N1CCCC1`, the IC90 worked out at 2.75 µM. Besides, the IC50 (PBLUC_HILL_SLOPE 2.17, PBLUC_R_SQUARED 0.715, read-out: LUCIFERASE INFECTION ASSAY - IC50) amounted to 1 µM.

In the case of `COc1ccc(CCNC(=O)c2ccccc2NC(=O)c2cc(OC)c(OC)c(OC)c2)cc1OC`, the IC90 is more than 6.67 µM. Also, the 50% inhibitory concentration (IC50) (PBLUC_HILL_SLOPE 2.16, PBLUC_R_SQUARED 0.652, read-out: LUCIFERASE INFECTION ASSAY - IC50) stood at 3.54 µM.

On to `COc1ccc(-c2cnc3cnc(-c4cccnc4)cn23)cc1`, for which the concentration for an effect of 90% (IC90) was 4.75 µM. Where the note is “PBLUC_HILL_SLOPE 2.13, PBLUC_R_SQUARED 0.733, read-out: LUCIFERASE INFECTION ASSAY - IC50”, the concentration for half-maximal inhibition (IC50) was 1.7 µM.

As to `COc1ccc(C2CCCN2Cc2cc(=O)oc3cc(C)c(Cl)cc23)c(OC)c1` (configuration not stated), the 90% effect concentration (IC90) was more than 10 µM. Also, the 50% inhibitory concentration (IC50) (PBLUC_HILL_SLOPE 2.17, PBLUC_R_SQUARED 0.455, read-out: LUCIFERASE INFECTION ASSAY - IC50) is 6.43 µM.

With `CC(C)c1ccc(NC(=O)[C@@H]2Cc3ccccc3CN2C(=O)OC(C)(C)C)cc1`, the IC90 is more than 8.36 µM. For the same compound, the IC50 (PBLUC_HILL_SLOPE 2.17, PBLUC_R_SQUARED 0.544, read-out: LUCIFERASE INFECTION ASSAY - IC50) was 3.19 µM.

With `O=C(COc1ccc2[nH]c3ccccc3c(=O)c2c1)N1CCN(c2ccc(F)cc2)CC1`, the IC90 turned out to be 7.49 µM. In addition, the IC50 (PBLUC_HILL_SLOPE 2.14, PBLUC_R_SQUARED 0.725, read-out: LUCIFERASE INFECTION ASSAY - IC50) was 2.68 µM.

On to `Cc1ccc(N(Cc2ccccc2)S(=O)(=O)c2ccc(S(C)(=O)=O)cc2)cc1`, for which the concentration for an effect of 90% (IC90) is more than 10 µM. Further, for the setting “PBLUC_HILL_SLOPE 2.12, PBLUC_R_SQUARED 0.413, read-out: LUCIFERASE INFECTION ASSAY - IC50”, the 50% inhibitory concentration (IC50) is 5.72 µM.

As for `CCCc1cc(NCc2ccccn2)n2ncc(-c3ccccc3)c2n1`, the IC90 is more than 9.61 µM. Moreover, the 50% inhibitory concentration (IC50) (PBLUC_HILL_SLOPE 2.13, PBLUC_R_SQUARED 0.117, read-out: LUCIFERASE INFECTION ASSAY - IC50) worked out at 5.6 µM.

Consider `O=C(/C=C/c1cn(Cc2ccccc2)nc1-c1ccccc1)N1CCN(c2ccncc2)CC1`, for which the IC90 was 6.13 µM. In addition, for the setting “PBLUC_HILL_SLOPE 2.17, PBLUC_R_SQUARED 0.608, read-out: LUCIFERASE INFECTION ASSAY - IC50”, the half-inhibitory concentration (IC50) stood at 2.22 µM.

With `CCCCNC1=C(NS(=O)(=O)c2ccc(NC(C)=O)cc2)C(=O)c2ccccc2C1=O`, the IC90 was more than 10 µM. Moreover, the IC50 (PBLUC_HILL_SLOPE 2.17, PBLUC_R_SQUARED 0.634, read-out: LUCIFERASE INFECTION ASSAY - IC50) is 3.66 µM.

In the case of `CC1CCc2c(sc3nc(Sc4nnnn4-c4ccccc4)nc(N)c23)C1` (configuration not stated), the concentration for an effect of 90% (IC90) is more than 10 µM. Under “PBLUC_HILL_SLOPE 2.12, PBLUC_R_SQUARED 0.375, read-out: LUCIFERASE INFECTION ASSAY - IC50”, the IC50 is 3.69 µM.

As for `C=CCNC(=O)NC(=O)COC(=O)c1c2c(nc3ccccc13)/C(=C/c1cccs1)CCC2`, the IC90 is more than 10 µM. The IC50 (PBLUC_HILL_SLOPE 2.17, PBLUC_R_SQUARED 0.466, read-out: LUCIFERASE INFECTION ASSAY - IC50) worked out at 7.2 µM.

For `CC(=O)N1CCc2cc(NC(=O)c3cc(C)n(C4CCCCC4)c3C)ccc21`, the IC90 was found to be 0.349 µM. The IC50 (PBLUC_HILL_SLOPE 2.13, PBLUC_R_SQUARED 0.772, read-out: LUCIFERASE INFECTION ASSAY - IC50) was 0.125 µM.

For the compound `O=C(Nc1ccc(Oc2ccc(OC(F)(F)F)cc2)cc1)C1CC1`, the IC90 was found to be 1.54 µM. The IC50 (PBLUC_HILL_SLOPE 2.12, PBLUC_R_SQUARED 0.759, read-out: LUCIFERASE INFECTION ASSAY - IC50) amounted to 0.548 µM.

For the compound `O=C(Nc1ccc(N2CCN(c3ncccc3C(F)(F)F)CC2)nc1)c1cccs1`, the IC90 came out at 0.867 µM. Further, the IC50 (PBLUC_HILL_SLOPE 2.12, PBLUC_R_SQUARED 0.656, read-out: LUCIFERASE INFECTION ASSAY - IC50) is 0.307 µM.

(Values after ChEMBL document CHEMBL4483862, “Open-source discovery of chemical leads for next-generation chemoprotective antimalarials” (2018).)
